Source: patent publication US7943618B2, “Btk protein kinase inhibitors” (Roche Palo Alto LLC, priority 2007, dated 2011)

Legend:
Ramos cells = test: Inhibition of B-cell Activation - B cell FLIPR assay in Ramos cells; assay type: cell-based; settings: Homo sapiens, 0.5 h, intracellular calcium increase stimulated by 10 μg/mL anti-IgM, compounds incubated 30 min at RT
Text: Inhibition of B-cell Activation—B cell FLIPR assay in Ramos cells
The B cell FLIPR assay is a cell based functional method of determining the effect of potential inhibitors of the intracellular calcium increase from stimulation by an anti-IgM antibody. Ramos cells (human Burkitt's lymphoma cell line. ATCC-No. CRL-1596) were cultivated in Growth Media (described below). One day prior to assay, Ramos cells were resuspended in fresh growth media (same as above) and set at a concentration of 0.5×10^6/mL in tissue culture flasks. On day of assay, cells are counted and set at a concentration of 1×10^6/mL1 in growth media supplemented with 1 μM FLUO-3AM(TefLabs Cat-No. 0116, prepared in anhydrous DMSO and 10% Pluronic acid) in a tissue culture flask, and incubated at 37° C. (4% CO2) for one h. To remove extracellular dye, cells were collected by centrifugation (5 min, 1000 rpm), resuspended in FLIPR buffer (described below) at 1×10^6 cells/mL and then dispensed into 96-well poly-D-lysine coated black/clear plates (BD Cat-No. 356692) at 1×10^5 cells per well. Test compounds were added at various concentrations ranging from 100 μM to 0.03 μM (7 concentrations, details below), and allowed to incubate with cells for 30 min at RT. Ramos cell Ca^2+ signaling was stimulated by the addition of 10 μg/mL anti-IgM (Southern Biotech, Cat-No. 2020-01) and measured on a FLIPR (Molecular Devices, captures images of 96 well plates using a CCD camera with an argon laser at 480nm excitation).
Growth Medium: RPMI 1640 medium with L-glutamine (Invitrogen, Cat-No. 61870-010), 10% Fetal Bovine Serum (FBS, Summit Biotechnology Cat-No. FP-100-05); 1 mM Sodium Pyruvate (Invitrogen Cat. No. 11360-070).
FLIPR buffer: HBSS (Invitrogen, Cat-No. 141175-079), 2 mM CaCl2 (Sigma Cat-No. C-4901), HEPES (Invitrogen, Cat-No. 15630-080), 2.5mM Probenecid (Sigma, Cat-No. P-8761), 0.1% BSA (Sigma, Cat-No. A-7906), 11 mM Glucose (Sigma, Cat-No. G-7528)
Compound dilution details:
In order to achieve the highest final assay concentration of 100 μM, 24 μL of 10 mM compound stock solution (made in DMSO) is added directly to 576 μL of FLIPR buffer. The test compounds are diluted in FLIPR Buffer (using Biomek 2000 robotic pipettor) resulting in the following dilution scheme: vehicle, 1.00×10^−4 M, 1.00×10^−5, 3.16×10^−6, 1.00×10^−6, 3.16×10^−7, 1.00×10^−7, 3.16×10^−8.
Intracellular increases in calcium were reported using a max-min statistic (subtracting the resting baseline from the peak caused by addition of the stimulatory antibody using a Molecular Devices FLIPR control and statistic exporting software. The IC50 was determined using a non-linear curve fit (GraphPad Prism software). Representative results are in Table III.

[1] = target: T1, Btk enzyme (His-tagged, full-length) (Homo sapiens, UniProt Q06187); test: Bruton's Tyrosine Kinase (Btk) Inhibition Assay (33P filtration capture); assay type: biochemical; settings: Bruton's tyrosine kinase Assay (Example 34); Table I pyridazinones; 100 μM ATP
T1 construct: 5-10 nM Btk enzyme (His-tagged, full-length); His
T1 sequence (Q06187 whole entry): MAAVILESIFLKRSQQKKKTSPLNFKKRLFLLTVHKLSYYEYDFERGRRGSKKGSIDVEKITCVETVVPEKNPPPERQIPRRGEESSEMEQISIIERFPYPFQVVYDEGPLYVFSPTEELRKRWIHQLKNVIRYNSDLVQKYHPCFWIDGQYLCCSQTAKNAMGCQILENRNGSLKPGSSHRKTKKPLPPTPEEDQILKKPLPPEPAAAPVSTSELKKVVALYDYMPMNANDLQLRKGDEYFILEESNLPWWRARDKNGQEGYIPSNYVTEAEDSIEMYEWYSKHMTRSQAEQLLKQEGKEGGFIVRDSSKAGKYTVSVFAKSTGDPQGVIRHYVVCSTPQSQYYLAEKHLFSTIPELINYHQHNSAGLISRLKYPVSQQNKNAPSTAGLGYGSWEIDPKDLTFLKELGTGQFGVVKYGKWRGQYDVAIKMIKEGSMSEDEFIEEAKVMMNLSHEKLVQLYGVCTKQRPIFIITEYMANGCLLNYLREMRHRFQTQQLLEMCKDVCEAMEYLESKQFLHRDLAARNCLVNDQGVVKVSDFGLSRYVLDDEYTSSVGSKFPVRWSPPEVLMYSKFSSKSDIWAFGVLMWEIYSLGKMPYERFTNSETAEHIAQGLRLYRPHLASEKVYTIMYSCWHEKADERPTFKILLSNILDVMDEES

IC50 (Ramos cells): 205 nM
melting point: 188.5 to 191 °C
IC50 [1]: 116 nM
Compound: Cc1c(-c2cc(Nc3ccc(C(=O)N4CCOCC4)cn3)c(=O)n(C)n2)cccc1-n1cnc2cc(C(C)(C)C)ccc2c1=O [Compound I-8, 7-tert-Butyl-3-(2-methyl-3-{1-methyl-5-[5-(morpholine-4-carbonyl)-pyridin-2-ylamino]-6-oxo-1,6-dihydro-pyridazin-3-yl}-phenyl)-3H-quinazolin-4-one]
